Key:
[1] = system: Plasmodium falciparum; assay: (§1) Growth inhibition of Plasmodium falciparum ring stage in infected erythrocytes by DAPI growth assay; format: functional, organism-based
[2] = system: Plasmodium falciparum; assay: as §1; format: functional, organism-based; remark: listed apart in the source
[3] = system: Plasmodium falciparum; assay: Growth inhibition of Plasmodium falciparum as reduced [3H]hypoxanthine incorporation; format: functional, organism-based
[4] = system: Plasmodium falciparum; assay: microbe, parasite or virus in culture; conditions: 3D7, 72 h
Description: Growth inhibition of Plasmodium falciparum 3D7 ring stage in infected erythrocytes after 72 hrs in DAPI fluorimetry

[5] = system: Plasmodium falciparum; assay: microbe, parasite or virus in culture; conditions: HB3, 72 h
Description: Growth inhibition of Plasmodium falciparum HB3 ring stage in infected erythrocytes after 72 hrs in DAPI fluorimetry

[6] = system: Plasmodium falciparum; assay: microbe, parasite or virus in culture; conditions: Dd2, 72 h
Description: Growth inhibition of Plasmodium falciparum Dd2 ring stage infected erythrocytes after 72 hrs by DAPI fluorimetry

Compound | IC50 [1] [nM] | IC50 [2] [nM] | IC50 [3] [nM] | IC50 [4] [nM] | IC50 [5] [nM] | IC50 [6] [nM]
C[C@@H]1CC[C@H]2[C@@H](C)C(=O)O[C@@H]3O[C@@]4(C)CC[C@@H]1[C@]32OO4 [ARTEMISININ] | 10.8 | 9.67 | 10.1 | 10.8 | 9.7 | 12.3
O=C1C(O)=C([C@H]2CC[C@H](c3ccc(Cl)cc3)CC2)C(=O)c2ccccc21 [ATOVAQUONE] | 0.66 | 0.63 | 0.61 |  |  | 
OC(c1cc(C(F)(F)F)nc2c(C(F)(F)F)cccc12)C1CCCCN1 (stereo not drawn) [MEFLOQUINE] |  |  |  | 12.3 | 9.63 | 26
CCc1nc(N)nc(N)c1-c1ccc(Cl)cc1 [PYRIMETHAMINE] |  |  |  | 10 | 49.9 | 44.1
C=C[C@H]1CN2CC[C@H]1C[C@H]2[C@H](O)c1ccnc2ccc(OC)cc12 [QUININE] | 66.5 | 69.2 | 62.8 |  |  | 

— ChEMBL document CHEMBL1142194, “High-throughput Plasmodium falciparum growth assay for malaria drug discovery” (Antimicrob Agents Chemother, 2007)
